Experimental data as given in article PMC4899770, “Core-shell nanocarriers with high paclitaxel loading for passive and active targeting” (Scientific Reports, 2016).

Conditions: rat, in vivo, iv, 10 mg/kg
Protocol: Blood samples (0.5 mL) were collected from rat orbit at the time points of 0.083, 0.25, 0.5, 1, 2, 4, 6 and 8 h. The blood samples were centrifuged for 10 min at 5,000 rpm in a desktop centrifuge (Anke TGL-16G, Shanghai, China), and the plasma was separated and transferred to microcentrifuge tubes. The PTX in plasma was measured using an HPLC system after extraction with ethylether and redissolved in methanol. The pharmacokinetic parameters of PTX were calculated using a non-compartmental model with Kinetica 5.0 (Thermo Fisher Scientific Inc., MA, USA).
Two hundred microliter of plasma samples were mixed with 10 µL of internal standard (100 ng/mL diazepam in methanol), followed by vortexing for 60 s. Following mixing into 800 µL of ethylether, the sample was vortexed for 2 min and centrifuged at 12,700 g for 10 min. Subsequently, the supernatant was collected and dried under a stream of nitrogen. The residual was redisolved in 100 µL of mobile phase, votexed for 3 min and centrifuged at 10,625 g for 5 min^7. Finally, 20 µL of the supernatant was injected into the HPLC system for analysis under the conditions described below.
PTX measurement was performed on a LC-10AT HPLC system (Shimadzu, Japan). It was separated at 30 °C using an ODS-C18 column (4.6 mm × 250 mm, Diamonsil, China). The samples were eluted with acetonitrile and water (54: 46, v/v) at the flow rate of 1.0 mL/min and monitored at 227 nm^8.

- AUC0-∞: 4380 ± 3570 ng·h/mL
- CL: 1.68 ± 1.19 L/h
- MRT: 1.78 ± 0.88 h
- k (elimination rate constant): 2.99 ± 2.88 h⁻¹
Substance: Taxol^®
